Key:
Type in all cases: cell-based, murine (C57BL/6 mice)
IκB-α = test: Western blotting of IκB-α phosphorylation and degradation in LPS-stimulated macrophages; conditions: pre-treatment 12 h, 5 to 40 μM, LPS 1 μg/mL 1 h
Procedure: Figure 5 The effects of penstyrylpyrone (1) on the protein expression level of IκB-α phosphorylation, degradation of IκB-α (A), NF-κB translocation (B), and NF-κB DNA binding activity (C) in murine peritoneal macrophages. Murine peritoneal macrophages were pre-treated for 12 h at the indicated concentrations of penstyrylpyrone (1), and stimulated for 1 h with LPS (1 μg/mL). Western blotting analysis of IκB-α and p-IκB-α in the cytoplasm and NF-κB in the nucleus (A, B) were performed. A commercially available NF-κB ELISA (Active Motif) was used to test the nuclear extracts and to determine the degree of NF-κB binding (C). […]
Murine peritoneal macrophages were homogenized (1:20, w:v) in PER-Mammalian Protein Extraction buffer (Pierce Biotechnology, Rockford, IL, USA) containing freshly added protease inhibitor cocktail I (EMD Biosciences, San Diego, CA, USA) and 1 mM phenylmethylsulfonyl fluoride (PMSF). […] The protein concentration was determined using the bicinchoninic acid (BCA) protein assay kit.
(§1) Western blotting analysis was performed by lysing the cells in 20 mM Tris-HCl buffer (pH 7.4) containing a protease inhibitor mixture (0.1 mM PMSF, 5 mg/mL aprotinin, 5 mg/mL pepstatin A, and 1 mg/mL chymostatin). The protein concentration was determined using a Lowry protein assay kit (P5626; Sigma Chemical Co., St. Louis, MO, USA). […]

[1] = test system: COX-2-derived PGE2 production in murine peritoneal macrophages; test: PGE2 production in LPS-stimulated macrophages, ELISA; conditions: Mus musculus, Peritoneal macrophage; pre-treated 12 h, LPS 1 μg/mL 18 h
Procedure: C57BL/6 mice were purchased from Orient Bio Co. (Sungnam, Kyung-Kido, Korea). TG-elicited peritoneal macrophages were harvested four days after intraperitoneal (i.p.) injection of 3 mL of TG [37]. Peritoneal lavage was performed using 8 mL of Hanks’ Balanced Salt Solution containing 10 U/mL heparin. The cells were distributed in Roswell Park Memorial Institute medium (RPMI) supplemented with 10% heat-inactivated FBS, in 6-well tissue culture plates (5 × 10^6 cells/mL). The level of PGE2, TNF-α or IL-1β present in each sample was determined using a commercially available kit from R & D Systems. The assay was performed according to the manufacturer’s instructions. Briefly, murine peritoneal macrophages were cultured in 24-well plates, pre-incubated for 12 h with different concentrations of compounds 1–3, and then stimulated for 18 h with LPS. The cell culture supernatants were then immediately collected after treatment and centrifuged at 13,000× g for 2 min to remove particulate matter. The medium was added to a 96-well plate pre-coated with affinity-purified PGE2-specific polyclonal antibodies or the medium was added to a 96-well plate pre-coated with affinity-purified polyclonal antibodies that were specific to mouse TNF-α or IL-1β. An enzyme-linked polyclonal antibody specific for PGE2, mouse TNF-α or IL-1β was added to the wells for 20 h, followed by a final wash to remove any unbound antibody-enzyme reagent. A substrate solution was added, and the intensity of the color produced, which was measured at 450 nm (the correction wavelength was set at 540 nm or 570 nm), was proportional to the amount of PGE2, TNF-α or IL-1β present.

COX-2 = test: Western blotting of COX-2 protein expression in LPS-stimulated macrophages; conditions: pre-treatment 12 h, LPS 1 μg/mL 18 h
Procedure: Figure 3 The effects of penstyrylpyrone (1) (A), anhydrofulvic acid (2) (B), and citromycetin (3) (C) on the protein expression of iNOS and COX-2 in murine peritoneal macrophages stimulated with LPS. Murine peritoneal macrophages were pre-treated for 12 h at the indicated compound concentrations and stimulated for 18 h with LPS (1 μg/mL). Western blotting analysis was performed, and the representative blots of three independent experiments are shown.
(§2) C57BL/6 mice were purchased from Orient Bio Co. (Sungnam, Kyung-Kido, Korea). TG-elicited peritoneal macrophages were harvested four days after intraperitoneal (i.p.) injection of 3 mL of TG [37]. Peritoneal lavage was performed using 8 mL of Hanks’ Balanced Salt Solution containing 10 U/mL heparin. The cells were distributed in Roswell Park Memorial Institute medium (RPMI) supplemented with 10% heat-inactivated FBS, in 6-well tissue culture plates (5 × 10^6 cells/mL).
as §1

[2] = test system: iNOS-derived NO production in murine peritoneal macrophages; test: Nitrite (NO) production in LPS-stimulated macrophages, Griess reaction; conditions: Mus musculus, Peritoneal macrophage; pre-treated 12 h, LPS 1 μg/mL 18 h
Procedure: The expression of pro-inflammatory enzymes, including COX-2 and iNOS, plays an important role in immune-activated macrophages via the production of COX-2-derived PGE2 and iNOS-derived NO [20, 21]. To investigate the effects of compounds on iNOS-derived NO and COX-2-derived PGE2 production, and iNOS and COX-2 expression in LPS-stimulated macrophages, murine peritoneal macrophages were stimulated with LPS (1 μg/mL) for 18 h in the presence or absence of non-cytotoxic concentrations of compounds 1–3 (Figure S1). […] The finding that penstyrylpyrone (1) suppressed LPS-induced pro-inflammatory mediators, such as NO, PGE2, iNOS, and COX-2, led further investigation of the effects of penstyrylpyrone (1) on LPS-induced TNF-α and IL-1β production, which are other pro-inflammatory mediators.
as §2
The production of nitrite, a stable end product of NO oxidation, was used as a measure of iNOS activity. The nitrite present in the conditioned medium was determined using a method based on the Griess reaction.

## COc1cc(/C=C/c2ccccc2)oc(=O)c1C [Penstyrylpyrone (1), penstyrylpyrone]
IκB-α
  LPS-induced phosphorylation and degradation of IκB-α: markedly inhibited
[1]
  IC50: 9.35 µM
COX-2
  COX-2 expression: decreased
[2]
  IC50: 12.3 µM

Reference: publication PMC3705412, “PTP1B Inhibitory and Anti-Inflammatory Effects of Secondary Metabolites Isolated from the Marine-Derived Fungus Penicillium sp. JF-55” (Marine Drugs, 2013)
